Source: PMC9059126, “Structure-Based Design of a Novel Class of Autotaxin Inhibitors Based on Endogenous Allosteric Modulators” (Journal of Medicinal Chemistry, 2022)

target: ATX (Rattus norvegicus, UniProt Q64610); experiment: Choline oxidase-coupled choline-release assay of LPC hydrolysis by ATX; conditions: LPC hydrolysis assay, 20 nM ATX
Description: The biochemical studies of ATX lysoPLD activity were performed with ATX. Activity was measured by a coupled reaction with 1 U mL^–1 choline oxidase and 2 U mL^–1 horseradish peroxidase (HRP) and 2 mM homovanillic acid (HVA) (all from Sigma-Aldrich). For the assays, 14:0, 16:0, 18:1, and 20:0 LPC (Avanti Polar Lipids Inc.) were incubated with 20 nM ATX, reaching a final volume of 100 μL of the buffer, which contained 50 mM Tris, 0.01%, 50 mM CaCl2, Triton X-100, pH 7.4. Steady-state choline release was measured at 37 °C by HVA fluorescence at λex/λem = 320/460 nm in Corning 96- or 384-well OptiPlate (Sigma-Aldrich) and with a Pherastar plate reader (BMG Labtech). […] The resulting fluorescence intensity signal over time was used to model all inhibitor concentrations simultaneously using the following formula, where vmax and vmin were fitted for the minimum and maximum relative velocities, respectively, and ci corresponds to the inhibitor concentration for each assay[20]

Row | SMILES | IC50 [nM] | Residual Activity (%)
1 | C[C@H](CCC(=O)NCCCOc1ccc(S(N)(=O)=O)cc1)[C@H]1CC[C@H]2C3[C@@H](O)C[C@@H]4C[C@H](O)CC[C@]4(C)[C@H]3CC[C@]12C (stereo partly drawn) [Compound 10] | 400 | 75
2 | C[C@H](CCC(=O)NCCOc1ccc(S(N)(=O)=O)cc1)[C@H]1CC[C@H]2C3[C@@H](O)C[C@@H]4C[C@H](O)CC[C@]4(C)[C@H]3CC[C@]12C (stereo partly drawn) [Compound 11] | > 10000 | 31
3 | C[C@H](CCC(=O)NCCCCOc1ccc(S(N)(=O)=O)cc1)[C@H]1CC[C@H]2C3[C@@H](O)C[C@@H]4C[C@H](O)CC[C@]4(C)[C@H]3CC[C@]12C (stereo partly drawn) [Compound 12] | > 10000 | 66
4 | C[C@H](CCC(=O)NCCOc1cccc(B2OC(C)(C)C(C)(C)O2)c1)[C@H]1CC[C@H]2C3[C@@H](O)C[C@@H]4C[C@H](O)CC[C@]4(C)[C@H]3CC[C@]12C (stereo partly drawn) [Compound 13] | 14000 | 14.7
5 | C[C@H](CCC(=O)NCCOc1ccc(B2OC(C)(C)C(C)(C)O2)cc1)[C@H]1CC[C@H]2C3[C@@H](O)C[C@@H]4C[C@H](O)CC[C@]4(C)[C@H]3CC[C@]12C (stereo partly drawn) [Compound 14] | 1500 | 1.4
6 | C[C@H](CCC(=O)NCCCOc1cccc(B2OC(C)(C)C(C)(C)O2)c1)[C@H]1CC[C@H]2C3[C@@H](O)C[C@@H]4C[C@H](O)CC[C@]4(C)[C@H]3CC[C@]12C (stereo partly drawn) [Compound 15] | 150 | 1.7
7 | C[C@H](CCC(=O)NCCCOc1ccc(B2OC(C)(C)C(C)(C)O2)cc1)[C@H]1CC[C@H]2C3[C@@H](O)C[C@@H]4C[C@H](O)CC[C@]4(C)[C@H]3CC[C@]12C (stereo partly drawn) [Compound 16] | 70 | 0.3
8 | C[C@H](CCC(=O)NCCCOc1ccc([B-](F)(F)F)cc1)[C@H]1CC[C@H]2C3[C@@H](O)C[C@@H]4C[C@H](O)CC[C@]4(C)[C@H]3CC[C@]12C.[Na+] (stereo partly drawn) [Compound 17] | 70 | 1.1
9 | C[C@H](CCC(=O)NCCCOc1ccc(B(O)O)cc1)[C@H]1CC[C@H]2C3[C@@H](O)C[C@@H]4C[C@H](O)CC[C@]4(C)[C@H]3CC[C@]12C (stereo partly drawn) [Compound 18] | 50 | 0.6
10 | C[C@H](CCC(=O)N1CCC(Oc2ccc(B3OC(C)(C)C(C)(C)O3)cc2)CC1)[C@H]1CC[C@H]2C3[C@@H](O)C[C@@H]4C[C@H](O)CC[C@]4(C)[C@H]3CC[C@]12C (stereo partly drawn) [Compound 19] | 80 | 0
11 | C[C@H](CCC(=O)N1CC[C@@H](Oc2ccc(B3OC(C)(C)C(C)(C)O3)cc2)C1)[C@H]1CC[C@H]2C3[C@@H](O)C[C@@H]4C[C@H](O)CC[C@]4(C)[C@H]3CC[C@]12C (stereo partly drawn) [Compound 20] | 210 | 8
12 | C[C@H](CCC(=O)N1CC[C@H](Oc2ccc(B3OC(C)(C)C(C)(C)O3)cc2)C1)[C@H]1CC[C@H]2C3[C@@H](O)C[C@@H]4C[C@H](O)CC[C@]4(C)[C@H]3CC[C@]12C (stereo partly drawn) [Compound 21] | 200 | 10

same assay, conditions: ethyl-linked, para against meta

Row | SMILES | fold increase in potency over meta-substituted pinacol boronate 13 [fold]
13 | C[C@H](CCC(=O)NCCOc1ccc(B2OC(C)(C)C(C)(C)O2)cc1)[C@H]1CC[C@H]2C3[C@@H](O)C[C@@H]4C[C@H](O)CC[C@]4(C)[C@H]3CC[C@]12C (stereo partly drawn) [Compound 14] | 10

same assay, conditions: read-out: %Inhibition at 100 μM

Row | SMILES | inhibition at 100 µM [%]
14 | COc1ccc([B-](F)(F)F)cc1 [Compound 6] | 57
15 | COc1ccc(B(O)O)cc1 [Compound 7] | 37
